Measured values reported in patent publication US20240382475A1, “Quinazoline Derivative, Or Preparation Method Therefor And Use Thereof” (Zhejiang Hisun Pharmaceutical Co., Ltd., priority 2021, published 2024).

What was measured:
Format in all cases: in vivo
[1] = Pharmacokinetic evaluation in ICR mice; conditions: male, mouse, plasma, PO 10 mg/kg
Source text: ICR normal mice were used as test animals, and LC/MS/MS was used to determine the drug concentrations at different moments in plasma of ICR mice by intragastric administration. The pharmacokinetic behavior of the compounds of the present invention in ICR mice was studied to evaluate the pharmacokinetic characteristics of the above compounds.
Compound 4, Compound 26 and Compound 32.
ICR mice, male, 27.8-38 g, were purchased from Zhejiang Vital River Laboratory Animal Technology Co., Ltd.
An appropriate amount of the compound was weighed, and DMA:30% Solutol HS-15:Saline=5:5:90 (v/v/v) was used as the solvent to prepare a fully dissolved solution, and then administered to obtain a 1 mg/mL colorless solution.
The ICR mice in the intragastric group of each compound to be tested (nine mice in each group) were fasted overnight followed by intragastric administration (administration dosage was 10 mg/kg and the administration volume was 10 mL/kg), and ate 4 hours after administration.
0.1 mL of blood was collected via orbit before administration and 0.25 hour, 0.5 hour, 1 hour, 2 hours, 4 hours, 8 hours, 12 hours, and 24 hours after administration, and placed in EDTA-K2 anticoagulant tubes. The collected blood samples were placed on ice, and plasma was separated by centrifugation (centrifugation condition: 1500 g, 10 minutes). The collected plasma samples were stored at −40˜−20° C. before analysis.
LC-MS/MS was used to determine the content of the compound to be tested in mouse plasma after intragastric administration.

[2] = Pharmacokinetic evaluation in beagle dogs; conditions: male, dog, plasma; for AUC(0-t): read-out: Area under curve AUC0-t; for half-life: read-out: Half-life T1/2 (converted)
Procedure: Beagle, male, 13 to 14 months old, purchased from Beijing Mas Biotechnology Co., Ltd.
Intravenous injection group: an appropriate amount of the compound to be tested was weighed, and an appropriate amount of DMA:30% Solutol HS-15:Saline=5:5:90 (v/v/v) was added, vortexed, and a solution with a final concentration of 0.5 mg/mL was prepared.
(§1) Intragastric administration group: an appropriate amount of the compound to be tested was weighed, and an appropriate amount of DMA:30% Solutol HS-15:Saline=5:5:90 (v/v/v) was added, vortexed, and a solution with a final concentration of 1 mg/mL was prepared.
The beagle dogs were divided into intravenous injection group (3 dogs/group) and intragastric administration group (3 dogs/group) according to the compound to be tested.
Intravenous injection group: dogs were fasted overnight and then administered by intravenous injection (administration dosage was 0.5 mg/kg, and administration volume was 1 mL/kg), and ate 4 hours after administration. […]
Intravenous injection group: about 0.5 mL of blood was collected through jugular vein into EDTA-K2 anticoagulant tubes at 0.083 hour, 0.25 hour, 0.5 hour, 1 hour, 2 hours, 4 hours, 8 hours and 24 hours after administration. […] The collected plasma sample was stored at −40˜−20° C. before analysis.
Intragastric administration group: about 0.5 mL of blood was collected through jugular vein into EDTA-K2 anticoagulant tubes at 0.25 hour, 0.5 hour, 1 hour, 2 hours, 4 hours, 8 hours and 24 hours after administration. […] The collected plasma sample was stored at −40˜−20° C. before analysis.
LC-MS/MS was used to determine the content of the compound to be tested in dog plasma after intravenous injection and intragastric administration of the compound.

[3] = Pharmacokinetic evaluation in SD rats; conditions: male, rat, plasma; for AUC(0-t): read-out: Area under curve AUC0-t; for half-life: read-out: Half-life T1/2 (converted)
Procedure: SD rats were used as the test animals, and LC/MS/MS was used to determine the drug concentrations at different moments in plasma after compound 11 of the present invention was administered to the rats through intravenous injection or intragastric administration. The pharmacokinetic characteristics of compound 11 of the present invention in SD rats were studied.
SD rats, male, 195-235 g, 6-8 weeks old, were purchased from Vital River Laboratory Animal Technology Co., Ltd.
Intravenous injection group: an appropriate amount of the compound to be tested was weighed, and an appropriate amount of DMA:30% Solutol HS-15:Saline=5:5:90 (v/v/v) was added respectively, vortexed, and a solution with a final concentration of 0.2 mg/mL was prepared.
as §1
The SD rats were divided into intravenous injection group (3 rats/group) and intragastric administration group (3 rats/group) according to the compound to be tested.
Intravenous injection group: rats were fasted overnight and then administered by intravenous injection (administration dosage was 1 mg/kg, and administration volume was 5 mL/kg), and ate 4 hours after administration.
Intragastric administration group: rats were fasted overnight followed by intragastric administration (administration dosage was 10 mg/kg, and administration volume was 10 mL/kg), and ate 4 hours after administration.
(§2) Intravenous injection group: about 150 μL of blood was collected through jugular vein into EDTA-K2 anticoagulant tubes 0.083 hour, 0.25 hour, 0.5 hour, 1 hour, 2 hours, 4 hours, 8 hours and 24 hours after administration. The collected blood sample was placed on ice, and plasma was separated by centrifugation (centrifugation condition: 1500 g, 10 minutes). The collected plasma sample was stored at −40˜−20° C. before analysis.
as §2, with “Intragastric administration group:” for “Intravenous injection group:”, “about 100” for “about 150”, “tubes” for “tubes 0.083 hour,”
LC-MS/MS was used to determine the content of the compound to be tested in rat plasma after intravenous injection and intragastric administration of the compound.

SMILES	AUC(0-t) ([1]; read-out: Area under curve AUC0-t)	half-life ([1]; read-out: Half-life T1/2 (converted))	Cmax ([1]; read-out: Plasma concentration Cmax)	bioavailability ([2]; Oral 2 mg/kg vs injection 0.5 mg/kg, read-out: Bioavailability F)	AUC(0-t) ([2]; Oral 2 mg/kg)	half-life ([2]; Oral 2 mg/kg)	Cmax ([2]; Oral 2 mg/kg, read-out: Plasma concentration Cmax)	AUC(0-t) ([2]; iv, injection 0.5 mg/kg)	half-life ([2]; iv, injection 0.5 mg/kg)	bioavailability ([3]; Oral 10 mg/kg vs injection 1 mg/kg, read-out: Bioavailability F)	AUC(0-t) ([3]; Oral 10 mg/kg)	half-life ([3]; Oral 10 mg/kg)	Cmax ([3]; Oral 10 mg/kg, read-out: Plasma concentration Cmax)	AUC(0-t) ([3]; iv, injection 1 mg/kg)	half-life ([3]; iv, injection 1 mg/kg)
COc1cc2nc(C)nc(N[C@H](C)c3cccc(C#N)c3C)c2cc1N1CCC2(CCOCC2)CC1 [Compound 4, (R)-3-(1-((7-methoxy-2-methyl-6-(3-oxa-9-azaspiro[5.5]undecan-9-yl)quinazolin-4-yl)amino)ethyl)-2-methylbenzonitrile]	5820 ng·h/mL	0.85 h	2310 ng/mL												
COc1cc2nc(C)nc(N[C@H](C)c3cccc(C#N)c3C)c2cc1N1CCC(C)(O)CC1 [Compound 11, (R)-3-(1-((6-(4-hydroxy-4-methylpiperidin-1-yl)-7-methoxy-2-methylquinazolin-4-yl)amino)ethyl)-2-methylbenzonitrile]				127%	3510 ± 1750 ng·h/mL	4.21 ± 0.943 h	456 ± 149 ng/mL	693 ± 183 ng·h/mL	2.81 ± 0.45 h	79.4%	4860 ± 1670 ng·h/mL	2.41 ± 2.11 h	1150 ± 349 ng/mL	612 ± 126 ng·h/mL	0.73 ± 0.32 h
